Like-named read-outs stand apart in the source and are kept apart here. Marks after values point to notes of the source that are not given here.
How the values were obtained:
[1] = test system: rats; conditions: rat, in vivo
Procedure: (§1) A group of each 5 male and female rats was dosed once daily with the indicated compounds (see Table 10, below for compounds, applied doses and administeration details) over 28 days.
(§2) Each dose group in the studies consisted of five rats per sex. Additional groups of each 5 male and female animals served as controls. Before starting the treatment period, animals, which were 62-64 days old when supplied, were acclimatized to the housing and environmental conditions for 7 days. All animals of the animal population were kept under the same constant temperature (20-24±3° C.) and the same constant humidity (30-70%). The animals of the animal population were fed ad libitum. The food to be used was essentially free of chemical or microbial contaminants. Drinking water was also offered ad libitum. Accordingly, the water was free of chemical and microbial contaminants as laid down in the European Drinking Water Directive 98/83/EG. The illumination period was 12 hours light followed by 12 hours darkness (12 hours light, from 6:00 to 18:00, and 12 hours darkness, from 18:00 to 6:00). The studies were performed in an AAALAC-approved laboratory in accordance with the German Animal Welfare Act and the European Council Directive 86/609/EE. The test system was arranged according to the OECD 407 guideline for the testing of chemicals for repeated dose 28-day oral toxicity study in rodents.
(§3) In the morning of day 7, 14, and 28, blood was taken from the retroorbital venous plexus from fasted anaesthetized animals. From each animal, 1 ml of blood was collected with EDTA as anticoagulant. The samples were centrifuged for generation of plasma. All plasma samples were covered with a N2 atmosphere and then stored at −80° C. until analysis.
(§4) For mass spectrometry-based metabolite profiling analyses plasma samples were extracted and a polar and a non-polar (lipid) fraction was obtained. For GC-MS analysis, the non-polar fraction was treated with methanol under acidic conditions to yield the fatty acid methyl esters. Both fractions were further derivatised with O-methyl-hydroxyamine hydrochloride and pyridine to convert Oxo-groups to O-methyloximes and subsequently with a silylating agent before analysis. In LC-MS analysis, both fractions were reconstituted in appropriate solvent mixtures. HPLC was performed by gradient elution on reversed phase separation columns. Mass spectrometric detection which allows target and high sensitivity MRM (Multiple Reaction Monitoring) profiling in parallel to a full screen analysis was applied as described in WO2003073464.
(§5) Steroids and their metabolites were measured by online SPE-LC-MS (Solid phase extraction-LC-MS).
(§6) Following comprehensive analytical validation steps, the data for each analyte were normalized against data from pool samples. These samples were run in parallel through the whole process to account for process variability. The significance of treatment group values specific for sex, treatment duration and metabolite was determined by comparing means of the treated groups to the means of the respective untreated control groups using WELCH-test and quantified with treatment ratios versus control and p-values.

[2] = test system: rats; assay: Plasma metabolite profiling (GC-MS, LC-MS) in rats dosed once daily over 28 days, treatment ratios versus control
Procedure: as §1, §2, §3, §4, §5, §6

[3] = female rats, day 28, high dose, Table 1a up-regulation
[4] = female rats, day 28, high dose, Table 1b down-regulation
[5] = male rats, day 28, high dose, Table 1c up-regulation
[6] = male rats, day 28, high dose, Table 1d down-regulation

O=C([O-])[O-].[Ca+2] [Calcium carbonate]
3-Hydroxybutyrate, plasma, ratio versus control [1]: 1.09*
4-Hydroxyphenylpyruvate, plasma, ratio versus control [1]: 0.23*
5-Oxoproline, plasma, ratio versus control [1]: 0.87*
16-Methylheptadecanoic acid, plasma, ratio versus control [1]: 0.66*
17-Methyloctadecanoic acid, plasma, ratio versus control [1]: 0.92*
Alanine, plasma, ratio versus control [1]: 0.79*
Coenzyme Q9, plasma, ratio versus control [1]: 0.72*
Creatine, plasma, ratio versus control [1]: 0.48*
Creatinine, plasma, ratio versus control [1]: 0.43*
DAG (C18:1, C18:2), plasma, ratio versus control [1]: 0.87*
Eicosaenoic acid (C20:1) No 02, plasma, ratio versus control [1]: 1.3*
Glucose, plasma, ratio versus control [1]: 0.93*
Glycerol, lipid fraction, plasma, ratio versus control [1]: 0.66*
Heptadecanoic acid (C17:0), plasma, ratio versus control [1]: 0.76*
Hippuric acid, plasma, ratio versus control [1]: 0.71*
Lactate, plasma, ratio versus control [1]: 0.95*
Linoleic acid (C18:cis[9, 12]2), plasma, ratio versus control [1]: 0.67*
Linolenic acid (C18:cis[9, 12, 15]3), plasma, ratio versus control [1]: 0.81*
Lysophosphatidylcholine (C17:0), plasma, ratio versus control [1]: 0.82*
Malate, plasma, ratio versus control [1]: 0.54*
Phenylalanine, plasma, ratio versus control [1]: 0.93*
Phosphatidylcholine (C16:0, C16:0), plasma, ratio versus control [1]: 1.06*
Phosphatidylcholine (C18:0, C20:4), plasma, ratio versus control [1]: 1.02*
Pyruvate, plasma, ratio versus control [1]: 0.77*
Sphingomyelin (d18:2, C16:0), plasma, ratio versus control [1]: 1.11*
TAG (C18:1, C18:2), plasma, ratio versus control [1]: 0.75*
TAG (C18:2, C18:2), plasma, ratio versus control [1]: 0.74*
TAG (C18:2, C18:3), plasma, ratio versus control [1]: 0.64*
TAG (DAG-Fragment), plasma, ratio versus control [1]: 0.72*
TAG No 01, plasma, ratio versus control [1]: 0.55*
TAG No 05, plasma, ratio versus control [1]: 0.71*
TAG No 07, plasma, ratio versus control [1]: 0.71*
TAG No 059, plasma, ratio versus control [1]: 0.68*
Threonic acid, plasma, ratio versus control [1]: 0.86*
Urea, plasma, ratio versus control [1]: 1.15*
gamma-Linolenic acid (C18:cis[6, 9, 12]3), plasma, ratio versus control [1]: 0.7*

[O-][Cl+3]([O-])([O-])O [Sodium perchlorate]
Isoleucine, plasma, ratio versus control ([2]; male rats, day 7, high dose, Table 2a up-regulation): 0.97
Isoleucine, plasma, ratio versus control ([2]; male rats, day 28, high dose, Table 2a up-regulation): 1.37 *
Isoleucine, plasma, ratio versus control ([2]; male rats, day 28, high dose, Table 2c up-regulation): 1.37*

Calcitonin (Salmon)
3-Hydroxybutyrate, plasma, ratio versus control [2, 3]: 1.32*
Coenzyme Q10, plasma, ratio versus control [2, 3]: 1.03*
Eicosaenoic acid (C20:1) No 02, plasma, ratio versus control [2, 3]: 3.35*
Phosphate (inorganic and organic phosphates), plasma, ratio versus control [2, 3]: 1.31*
Phosphatidylcholine (C18:0, C20:4), plasma, ratio versus control [2, 3]: 1.05*
Sphingomyelin (d18:2, C16:0), plasma, ratio versus control [2, 3]: 1.11*
Urea, plasma, ratio versus control [2, 3]: 1.36*
myo-Inositol-2-phosphate, plasma, ratio versus control [2, 3]: 1.27*
4-Hydroxyphenylpyruvate, plasma, ratio versus control [2, 4]: 0.63*
18-Hydroxy-11-deoxycorticosterone, plasma, ratio versus control [2, 4]: 0.85*
Alanine, plasma, ratio versus control [2, 4]: 0.75*
Creatine, plasma, ratio versus control [2, 4]: 0.92*
Creatinine, plasma, ratio versus control [2, 4]: 0.58*
Glucose, plasma, ratio versus control [2, 4]: 0.95*
Lysophosphatidylcholine (C17:0), plasma, ratio versus control [2, 4]: 0.91*
Methionine, plasma, ratio versus control [2, 4]: 0.85*
Phenylalanine, plasma, ratio versus control [2, 4]: 0.88*
Threonic acid, plasma, ratio versus control [2, 4]: 0.75*
Glycine, plasma, ratio versus control [2, 5]: 0.86
Phosphate (inorganic and organic phosphates), plasma, ratio versus control [2, 5]: 1.35*
Phosphatidylcholine (C16:0, C16:0), plasma, ratio versus control [2, 5]: 1.24*
myo-Inositol-2-phosphate, plasma, ratio versus control [2, 5]: 1.41*
5-Oxoproline, plasma, ratio versus control [2, 6]: 0.94*
16-Methylheptadecanoic acid, plasma, ratio versus control [2, 6]: 0.59*
17-Methyloctadecanoic acid, plasma, ratio versus control [2, 6]: 0.65*
18-Hydroxy-11-deoxycorticosterone, plasma, ratio versus control [2, 6]: 0.24*
Alanine, plasma, ratio versus control [2, 6]: 0.78*
Coenzyme Q9, plasma, ratio versus control [2, 6]: 0.83*
Coenzyme Q10, plasma, ratio versus control [2, 6]: 0.74*
DAG (C18:1, C18:2), plasma, ratio versus control [2, 6]: 0.63*
Glycerol, lipid fraction, plasma, ratio versus control [2, 6]: 0.86*
Glycine, plasma, ratio versus control [2, 6]: 0.86*
Heptadecanoic acid (C17:0), plasma, ratio versus control [2, 6]: 0.77*
Hippuric acid, plasma, ratio versus control [2, 6]: 0.48*
Lactate, plasma, ratio versus control [2, 6]: 0.7*
Linoleic acid (C18:cis[9, 12]2), plasma, ratio versus control [2, 6]: 0.82*
Linolenic acid (C18:cis[9, 12, 15]3), plasma, ratio versus control [2, 6]: 0.61*
Malate, plasma, ratio versus control [2, 6]: 0.8*
Methionine, plasma, ratio versus control [2, 6]: 0.88*
Pyruvate, plasma, ratio versus control [2, 6]: 0.76*
TAG (C18:1, C18:2), plasma, ratio versus control [2, 6]: 0.7*
TAG (C18:2, C18:2), plasma, ratio versus control [2, 6]: 0.6*
TAG (C18:2, C18:3), plasma, ratio versus control [2, 6]: 0.78*
TAG (DAG-Fragment), plasma, ratio versus control [2, 6]: 0.7*
TAG No 01, plasma, ratio versus control [2, 6]: 0.66*
TAG No 05, plasma, ratio versus control [2, 6]: 0.68*
TAG No 07, plasma, ratio versus control [2, 6]: 0.78*
TAG No 059, plasma, ratio versus control [2, 6]: 0.65*
gamma-Linolenic acid (C18:cis[6, 9, 12]3), plasma, ratio versus control [2, 6]: 0.98
